Results reported in patent US5389621A, “Method of enhancing the anticoagulant effects of aspirin using salicylamide” (University of Medicine and Dentistry of New Jersey, priority 1994, dated 1995).
“Also recorded” adds a separate entry of the source.

Experiments:
vascular cyclooxygenase = assay: 6-keto PG F1alpha production from thoracic aortic rings ex vivo; type: in vivo, male Sprague-Dawley rats; details: for Inhibition of PG I2 (6-keto PG F1alpha) / vascular cyclooxygenase: ASA 10 mg/kg or SAM 9 mg/kg, rat thoracic aortic rings ex vivo
Experimental: The method used was a modification of that used by Dejana et al. (1981). Male Sprague-Dawley rats were randomly treated with either ASA (10 mg/kg), SAM (9 mg/kg), ASA/SAM (10/9 mg/kg), or isotonic saline. The rats were fasted overnight before administration of the treatments. Half an hour following treatment, the rats were exsanguinated by heart puncture under ether anesthesia and the thoracic aorta was immediately isolated, cleaned of adventitia, and flushed in situ with 5 ml of isotonic saline. The vessel was then removed and 2 rings (each was nearly 7 mg wet weight corresponding to 0.5 cm length) were cut from the middle part. The rings were immediately incubated in 160 μl of Krebs-Hanseleit buffer solution adjusted to pH 7.4 and containing AA (final concentration 4.3 mM) in polyethylene tubes. The tubes were incubated at 37° C. in a shaking water bath for 10 minutes. The reaction was terminated by the addition of 40 μl of EDTA/ASA solution and the tubes were centrifuged at 1800× g for 15 minutes at 4° C. 100 μl of the supernatant were used for the measurement of 6-keto PG F1alpha content as an indicator of its unstable precursor, PG I2. A specific radioimmunoassay (Amersham International) (vide infra) was employed.
Radioimmunoassay Procedure for Measurement of Thromboxane B2 and 6-keto PG F1alpha
The procedure described below is for thromboxane A2. A similar procedure was used for 6-keto PG F1alpha measurement.
One way ANOVA followed by Scheffe multiple range test was employed for treatment comparisons. The accepted level of significance was p<0.05.

[1] = Plasma kinetics of total 14C after oral 14C-aspirin alone or with salicylamide; type: in vivo, male Sprague-Dawley rats; details: for Effect on AUC.infin. of 14C / Effect on total body clearance (ClT) of 14C: after 14C-ASA; for AUC.infin. of 14C: mean ± SE, n=6
Experimental: Male adult Sprague-Dawley rats (300-325 gm) obtained from Charles River Breeding Laboratory, N. Wilmington, Mass. were quarantined for one week. All animals were identified by ear punching. Food and water were provided ad libitum. The animals were maintained on rodent lab chow diet in a controlled environment with 50% humidity and 12 hour light/dark cycle.
Two dose combinations were employed. The low dose was 10 and/or 3 mg/kg of ASA and/or SAM, respectively, while the high dose was double the low dose. These doses were approximately equal (w/w) to that in commercially available combinations, e.g., BC® formula, when administered to humans.
Rats were divided into 2 groups; the first group consisted of 30 rats which were assigned to 5 subgroups, 6 rats each, according to the following treatment scheme:
The second group consisted of 4 subgroups and were administered double the dose received by the first group (with the exception of subgroup III).
The rats were fasted overnight (~18 hr.) before administration of the treatments and were allowed water ad libitum. The drug(s) to be given were prepared fresh in the morning of the study, dissolved in 2.5 ml of deionized water and gavaged to rats.
The specific activity of ASA was 739 and 369 dpm/μg for the low and high dose treatments, respectively.
The samples were collected by heparinized plastic syringes and transferred to polyethylene test tubes. The samples, ~300 μl each, were rapidly centrifuged at 1800×g for 15 minutes at 4° C.
The terminal elimination rate constant (ke) was estimated by linear regression of the terminal β phase of the plasma concentration vs. time curves. The area under the curve (AUC.infin.) was calculated by using the trapezoidal method from zero to the last measured plasma concentration. The half-life of elimination (t1/2β) was obtained by the equation t1/2β =0.693/ke.
Total body clearance (ClT) was estimated by the equation ClT =Dose/AUC assuming a complete absorption of ASA and SAM (Iwamoto et al., 1982; Iwamoto et al., 1983). The apparent volume of distribution Vd was calculated from the formula, Vd =ClT /ke.

[2] = oral 14C-ASA 10 mg/kg, alone or with SAM 3 mg/kg
[3] = oral 14C-ASA 20 mg/kg, alone or with SAM 6 mg/kg

NC(=O)c1ccccc1O [SAM, Salicylamide]
Inhibition of PG I2 (6-keto PG F1alpha) / vascular cyclooxygenase (vascular cyclooxygenase): partially, but still significantly, block vascular cyclooxygenase activity | Potentiation of ASA inhibitory effect on vascular cyclooxygenase (vascular cyclooxygenase; SAM with ASA, ex vivo): significant potentiation | Effect on AUC.infin. of 14C [1]: further increased, albeit not significantly | Effect on total body clearance (ClT) of 14C [1]: tended to decrease the ClT after the high dose combination | Duration of the SAM effect on plasma 14C ([1]; following coadministration with 14C-ASA): approximately 4 hours | Increase of Cmax of total 14C by SAM ([1]; high dose 14C-ASA coadministration): ~25% | Effect of SAM on 14C-ASA absorption half-life ([1]; rat, in vivo): no effect | Effect of SAM coadministration on Cmax / plasma level of total 14C ([1]; with 14C-ASA): enhanced maximum plasma concentration (Cmax) of total ^14 C dose-dependently; also recorded: dose-dependently increases the plasma level of total ^14 C radioactivity

CC(=O)Oc1ccccc1[14C](=O)O [^14 C-ASA]
Effect on AUC.infin. of 14C [1]: showed a dose dependent increase | Effect on total body clearance (ClT) of 14C [1]: decreased dose-dependently | T1/2β of 14C ([1]; high dose, 14C-ASA alone or with SAM): 5.1 h | Elimination half-life of 14C ([1]; low dose of 14C-ASA alone or in combination with SAM, from 6-24 hour plasma concentrations, 10 mg/kg): 2.8 to 3.2 h | AUC4hr of 14C (first 4 hr) [1, 2]: 99.6 ± 10.6 µg·h/mL | C1T total body clearance of 14C [1, 2]: 10.3 ± 1.1 mL/h | Cmax of 14C [1, 2]: 29900 ± 2300 ng/mL | T1/2abs absorption half-life of 14C [1, 2]: 9.1 ± 1.1 min | T1/2β elimination half-life of 14C [1, 2]: 3.2 ± 0.2 h | Vd apparent volume of distribution of 14C [1, 2]: 46.1 ± 2.4 mL | AUC.infin. of 14C [1, 2]: 345.7 ± 38.3 µg·h/mL | AUC4hr of 14C (first 4 hr) [1, 3]: 222.2 ± 15.3 µg·h/mL | C1T total body clearance of 14C [1, 3]: 7.7 ± 0.8 mL/h | Cmax of 14C [1, 3]: 65100 ± 8200 ng/mL | T1/2abs absorption half-life of 14C [1, 3]: 8.9 ± 0.9 min | Vd apparent volume of distribution of 14C [1, 3]: 85.5 ± 28.1 mL | AUC.infin. of 14C [1, 3]: 810.6 ± 81.7 µg·h/mL

CC(=O)Oc1ccccc1C(=O)O [ASA, acetylsalicylic acid]
Inhibition of PG I2 (6-keto PG F1alpha) / vascular cyclooxygenase (vascular cyclooxygenase): inhibited PG I2
